Data taken from patent US20230303577A1, “TEMOZOLOMIDE ANALOGS AND METHODS OF USE” (St. John's Cancer Institute, priority 2020, published 2023).
Like-named read-outs stand apart in the source and are kept apart here. Blank lines part the entries; values can stand above or below the compound they belong to.

How the values were obtained:
P-gp = assay: Bidirectional Caco-2 permeability / P-gp efflux assay; type: in vitro ADME; settings: human
Description: (§1) Permeability of the compounds was evaluated in the bidirectional Caco-2 assay including identification of P-glycoprotein substrate (Pgp-mediated transport). Verapamil was used as a p-gp inhibitor. The apparent permeability (Papp) was calculated using the following equation:
(§2) Papp=VA/Area×Time×[drug]acc/[drug]initial,d
(§3) Permeability of the compounds was evaluated in the bidirectional Caco-2 assay as described in Example 11 (Table 15).

U87 = assay: cells; settings: read-out: IC50, 72 h
Description: (§4) The effect of selected compounds on glioma cells viability was determined. The cells were plated at 2000 cells/well in 96 well plates. The day after, cells were treated with various concentrations of temozolomide or VMY-TP analogs.
(§5) Activity of TP-RGD was assessed in glioma cell cultures, as described in Example 11.

T98G = assay: cells
Description: as §4, §5

U251 [1] = assay: cells; settings: read-out: IC50, 72 h
Description: as §4, §5

GBM8 = assay: AlamarBlue cell viability, GBM8 patient-derived cell line; type: cell-based; settings: 72 h, read-out: IC50, 72 h
Description: as §4

[2] = Metabolic stability in mouse liver microsomes; type: in vitro ADME
Description: Metabolic stability of the compounds was also determined in mouse liver microsomes at five time points over 60 minutes, using HPLC-MS. Liver microsomes, as vesicles of the hepatocyte endoplasmic reticulum, contain membrane phase I enzymes namely CYPs, flavine-containing monooxygenases (FMO), esterases, amidases, and epoxide hydrolases, and also the phase II enzymes such as UGTs. For the catalytic activity of both phase I and II enzymes, addition of exogenous cofactors such as NADPH for CYPs and FMO, and UDPGA/alamethicin for UGTs is necessary.

T98G cells = assay: Cell Titer Glo viability of T98G cells with or without O6-BG pretreatment; type: cell-based
Description: T98G cells, which express MGMT, were treated with TMZ or test compounds with or without 3, 6, or 24 hours of pretreatment with 100 μM of O^6-benzylguanine (O^6-BG; a pseudo-substrate of MGMT that quenches the cellular store of enzyme). T98G cell lysates were probed with anti-MGMT antibody and then with anti-a tubulin (FIG. 4). In a separate experiment, TMZ or test compounds were added to T98G cells with or without 5-6 hours of pretreatment with 100 μM O^6-BG. Cell viability was measured using the Cell Titer Glo assay after 3 days of incubation and IC50 values were determined (Table 3).

[3] = BBB permeability, cassette intravenous dosing; type: in vivo, male CD-1 mice; settings: cassette IV 5 mg/kg; for concentration at 5 min: 10% DMSO in PBS
Description: BBB permeability of the compounds was tested in male CD-1@IGS mice using cassette intravenous dosing (Table 7 and FIGS. 6A and 6B). There were three animals in each group, given a dose of 5 mg/kg formulated in 10% DMSO in PBS (v/v) for 5 minutes. The endpoint was quantifying the parent compound using LC-MS/MS. Plasma samples (50 μl) were immediately mixed with 25 μl of H3PO4 (8.5%). Then 225 μl of internal standard (IS; 400 ng/ml meldonium in methanol) was added. After mixing by pipetting and centrifuging for 4 min at 6000 rpm, 2 μl of each supernatant was injected into LC-MS/MS system. Brain samples (100 mg±1 mg) were immediately mixed with 100 μl H3PO4 (25%) and zirconium oxide beads (115 mg±5 mg). Then 400 μl of IS solution was added and samples were disperse using a bullet blender homogenizer for 30 seconds at speed 8. The samples were centrifuged for 4 min at 14,000 rpm and 2 μl of each supernatant was injected into LC-MS/MS system.

[4] = Aqueous chemical stability (HPLC-MS); type: physicochemical
Description: Detection of products of non-enzymatic cleavage (AIC-TMZ, AIC-TP3, AIC-TP5, and AIC-TP9) was performed (Table 4; FIGS. 5A-5D).

Caco-2 = assay: Bidirectional Caco-2 permeability / P-gp efflux assay; type: in vitro ADME; settings: human, Caco-2
Description: as §1, §2, §3

A172 = assay: cells; settings: read-out: IC50, 72 h; A172, MGMT −, Table 14
Description: as §4, §5

[5] = for % decomp.: AIC formation, pH>7.4, 60° C.; for % SM: phosphate buffer pH>7.4, 60° C.
Description: 2 mg of TP-RGD was dissolved in 0.8 mL of phosphate buffer at pH>7.4. […] Then the reaction temperature was increased to 60° C. and incubated for 4 h. During the period of incubation, the reaction was monitored for every 30 min by LC-MS. Measure the AIC formation (% decomp) over the time.

P-glycoprotein (P-gp) = assay: Bidirectional Caco-2 permeability / P-gp efflux assay; type: in vitro ADME; settings: human; Caco-2 permeability; P-gp efflux ratio, Table 15
Description: as §1, §2, §3

U251 [6] = settings: read-out: IC50 U251 cell proliferation (BrdU ELISA); 72 hours of treatment
Description: U87 cells were seeded at the density of 2,000 cells/well in 96-well plates and incubated overnight. The day after, cells were treated with various concentrations of Temozolomide or analogs for 72 hours. The BrdU ELISA proliferation assay was performed according to the manufacturer's instructions (Roche, #11647229001). Briefly, 20 μl of diluted BrdU labelling reagent was added to each well, to a final concentration of 10 μM BrdU per well. The cells were then incubated at 37° C. for 24 hours. Following this incubation, the labeling medium was aspirated from each well and 200 μl of Roche FixDenat fixing buffer was added. The plates were then incubated at 25° C. for 30 minutes. The fixing solution was removed, and 100 μl of Anti-BrdU-POD antibody was added to each well and incubated again at 25° C. for 90 minutes. Wells were rinsed three times with 200 μl of PBS, then 100 μl of Roche Substrate solution was added to each well. Following a 25 minute incubation at room temperature, the absorbance of each plate was read at 370 nm (reference wavelength: approx. 492 nm) on a Spectramax® i3x microplate reader.
The effect on U251 cell proliferation after 72 hours of treatment was also assessed using the BrdU ELISA cell proliferation assay as described in Example 11.

efflux ratio (P-gp; Caco-2, Efflux Ratio): 21.7
SMILES: CC[C@]1(O)C[C@@H]2CN(CCc3c([nH]c4ccccc34)[C@@](C(=O)OC)(c3cc4c(cc3OC)N(C)[C@H]3[C@@](O)(C(=O)OC)[C@H](OC(C)=O)[C@]5(CC)C=CCN6CC[C@]43[C@@H]65)C2)C1 [Vinblastine]

SMILES: Cn1nnc2c(C(=O)NC3CCCCC3)ncn2c1=O [TP5, N-cyclohexyl-3-methyl-4-oxo-3,4-dihydroimidazo[5,1-d][1,2,3,5]tetrazine-8-carboxamide]
IC50 (U87; Homo sapiens, U-87 MG, 72 h): 168 µM | IC50 (T98G; Homo sapiens, 72 h, read-out: IC50, 72 h): 581 µM | IC50 (U251 [1]; Homo sapiens, U-251, 72 h): 139 µM | IC50 (GBM8): 28 µM | Clearance Classification (Low <8.6; High >48) [2]: Moderate | microsomal CLint ([2]; mouse, liver microsomes, read-out: Intrinsic clearance (Clint)): 25 µL/min/mg | % remaining (1 h) With co-factors ([2]; with co-factors): 49% | % remaining (1 h) Without co-factors ([2]; without co-factors): 94% | IC50 (T98G cells; Homo sapiens, read-out: IC50 With O^6-BG pretreatment): 168 µM | IC50 (T98G cells; Homo sapiens, read-out: IC50 Without O^6-BG pretreatment): 410 µM | efflux ratio (P-gp; Caco-2, without verapamil, read-out: Efflux Ratio BA/AB p-gp Inhibitor (−)): 0.9 | Papp A→B (P-gp; Caco-2, without verapamil, read-out: Papp (AB) p-gp Inhibitor (−)): 26.6 ×10⁻⁶ cm/s | Papp B→A (P-gp; Caco-2, without verapamil, read-out: Papp (BA) p-gp Inhibitor (−)): 24.3 ×10⁻⁶ cm/s | % Brain ([3]; 5 min): 25% | % Plasma ([3]; 5 min): 75% | concentration at 5 min ([3]; male, CD-1, mouse, brain, read-out: Brain Conc.): 3050 ng/g | Kp at 5 min ([3]; male, CD-1, mouse, brain/plasma): 0.99 | concentration at 5 min ([3]; male, CD-1, mouse, plasma, read-out: Plasma Conc): 3120 ng/mL | half-life at 1 μM ([4]; 0.1 M phosphate buffer pH 7.0): > 2 h | half-life at 1 μM ([4]; 0.1 M phosphate buffer pH 8.0): 0.667 h | half-life at 1 μM ([4]; PBS pH 7.4): 1.15 h

SMILES: O[C@H]([C@H](O)[C@@H]1CO1)[C@H]1CO1 [VAL-083, reference compound]
IC50 (T98G cells; 5-6 h pretreatment with 100 μM O6-BG, 3 days, read-out: IC50 With O^6-BG pretreatment): 71 µM | IC50 (T98G cells; 3 days, read-out: IC50 Without O^6-BG pretreatment): 108 µM

Papp A→B (P-gp; Caco-2): 1.2 ×10⁻⁶ cm/s | Papp B→A (P-gp; Caco-2): 15.8 ×10⁻⁶ cm/s | efflux ratio (P-gp; Caco-2, Efflux Ratio BA/AB p-gp Inhibitor (−)): 13.6 | Efflux Ratio BA/AB p-gp Inhibitor (+) (Caco-2): 1.0 | Papp (AB) p-gp Inhibitor (+) (Caco-2): 5.9 10^−6 cm/s | Papp (BA) p-gp Inhibitor (+) (Caco-2): 6.1 10^−6 cm/s
SMILES: C[C@H]1O[C@@H](O[C@H]2[C@@H](O)C[C@H](O[C@H]3[C@@H](O)C[C@H](O[C@H]4CC[C@@]5(C)[C@H](CC[C@@H]6[C@@H]5C[C@@H](O)[C@]5(C)[C@@H](C7=CC(=O)OC7)CC[C@]65O)C4)O[C@@H]3C)O[C@@H]2C)C[C@H](O)[C@@H]1O [Digoxin]

SMILES: Cn1nnc2c(C(=O)NCCCC[C@@H]3NC(=O)[C@@H](Cc4ccc(O)cc4)NC(=O)[C@H](CC(=O)O)NC(=O)CNC(=O)[C@H](CCCNC(=N)N)NC3=O)ncn2c1=O [TP-RGD]
IC50 (U87; U87MG, MGMT −, Table 14): > 100 µM | IC50 (T98G; read-out: IC50, 72 h, MGMT +++, Table 14): 0.254 µM | IC50 (U251 [1]; U251, MGMT −, Table 14): 0.306 µM | IC50 (A172): 0.383 µM | % decomp. ([5]; 0.5 h): 0% | % decomp. ([5]; 1 h): 18.2% | % decomp. ([5]; 1.5 h): 33.9% | % decomp. ([5]; 2 h): 53.5% | % decomp. ([5]; 2.5 h): 56.8% | % decomp. ([5]; 3 h): 61.6% | % decomp. ([5]; 4 h): 94.7% | % decomp. ([5]; 4.5 h): 94.7% | % SM ([5]; 1 h): 81.8% | % SM ([5]; 1.5 h): 65.5% | % SM ([5]; 2 h): 45.9% | % SM ([5]; 2.5 h): 39.3% | % SM ([5]; 3 h): 27.4% | % SM ([5]; 4 h): 2.3% | % SM ([5]; 4.5 h): 2.3% | product formation (hydrolysis) ([5]; phosphate buffer pH>7.4, room temperature): no product formation | efflux ratio (P-glycoprotein (P-gp)): 0.57 | IC50 (U251 [6]): 70.2 µM
